Data: patent publication US11554124B2, “Hematopoiesis-enhancing agent” (priority 2018, dated 2023)

What was measured:
[1] = tested on: SAM present in erythroblasts; assay: Abundance of SAM in bone marrow erythroblasts of treated mice (mass spectrometry); type: in vivo, mouse; conditions: CLEU 50 mg/body i.p., bone marrow subset II, Day 2, vs PBS
Method: Wild-type mice with a genetic background of C57BL/6J were purchased from Charles River Laboratories, Inc. Mice at 8 to 14 weeks of age were used for analysis. For CLEU treatment (50 mg/body), a solution of cycloleucine (CLEU) was prepared by diluting cycloleucine (CLEU) (Sigma) in PBS (50 mg/ml), and 1 ml of the CLEU solution was administered intraperitoneally. For AKBA treatment (2 mg/body), 2 mg AKBA (Enzo Life Sciences)/20% DMSO/1 mL PBS solution was administered intraperitoneally. Vehicle without AKBA was used as a control. For measuring complete blood count of peripheral blood, peripheral blood was collected from facial veins and counted by use of an automated animal blood cell counter (microsemi LC-662). All of the experiments conducted in this study were approved by the Animal Experiment Committee of the Environmental Safety Committee of Tohoku University. BM cells and spleen cells were harvested in a conventional manner. Cells were stained with combinations of antibodies specific to erythroblasts and mature cells, to thereby identify them. The cells were visualized with antibody and streptavidin-peridinin chlorophyll protein-cyanin 5.5. […] Flow cytometric analysis and cell sorting were performed according to the manufacturer's protocol using FACS AriaII (BD), and then the obtained data were analyzed using FlowJo software (TreeStar). […]

[2] = tested on: trimethylation of lysine 9 of histone H3 (H3K9me3); assay: Western blot of H3K9me3 in bone marrow erythroblast subset II; type: in vivo, mouse; conditions: CLEU, BM erythroblast subset II, Day 2, vs PBS
Description: FIG. 4 is the experimental result showing that epigenetic demethylation induces the final maturation of erythroblasts. Panel A: WGBS (whole genome bisulfite sequencing) results of bone marrow erythroblast subset II harvested from CLEU or PBS treated mouse (Day 2) (CLEU; n=2, PBS; n=2). Panel B: Difference in expression levels versus difference in CpG methylation of the promoter for all expressed genes (at least one of FPKM>10 and CV<0.5). The correlation (Cor) was −0.08. […] The correlation (Cor) was −0.11. Panel D: Images (photographs) showing western blot (WB) results of trimethylation of lysine 9 of histone H3 (H3K9me3) on bone marrow erythroblast subset II harvested from CLEU or PBS treated mouse (Day 2). Panels E-G: In vitro red blood cell differentiation of Human CD34^+ cord blood cells. Panel E: Representative results of flow cytometric analysis. Panel F: Cumulative results for the indicated cell population. Panel G: Cumulative results for CD34 EMI (CD34 red blood cell maturation index: CD71^+ GlyA^+/CD71^+ GlyA^−). Each point shown in the box plots represents each technical replicate. Asterisk indicates P<0.001.
(§1) The overall transcriptional changes observed as above could be attributed to epigenetic modification changes due to the reduced abundance of intracellular SAM (Panel A of FIG. 2). […]

[3] = tested on: DNA CpG methylation; assay: Whole genome bisulfite sequencing (WGBS) of bone marrow erythroblast subset II; type: in vivo, mouse; conditions: CLEU, BM erythroblast subset II, Day 2, vs PBS
Method: DNA was isolated by using phenol/chloroform extraction from sorted sample of bone marrow subset II erythroblasts (PBS; n=2, CLEU; n=2). DNA quality control, bisulfite conversion, library preparation, high-throughput sequencing, and data mapping were performed at Macrogen, Inc. Briefly, TruSeq DNA Methylation Kit and EZ DNA Methylation Gold (Illumina and Zymo Research) were used for library preparation according to the manufacturer's protocol (TruSeq DNA Methylation Library Preparation Guide), followed by high-throughput sequencing by HiseqX (Illumina). After the sequencing run, the raw sequence reads were filtered based on quality, and the adapter sequences were trimmed off. The remaining reads are mapped to the reference genome (mm9) using BSMAP based on SOAP (Short Oligo Alignment Program). SAMBAMBA version 0.5.9 was used to remove index and PCR duplicates, and to select reads with modification. Methylation level was calculated for every single cytosine from mapping results using BSMAP version 2.87. Only cytosine positions with >=5 reads coverage were used for further analysis.
as §1

[4] = Complete blood count of peripheral blood of treated mice; type: in vivo; conditions: CLEU 50 mg/body i.p.
Method: Wild-type mice with a genetic background of C57BL/6J were purchased from Charles River Laboratories, Inc. Mice at 8 to 14 weeks of age were used for analysis. For CLEU treatment (50 mg/body), a solution of cycloleucine (CLEU) was prepared by diluting cycloleucine (CLEU) (Sigma) in PBS (50 mg/ml), and 1 ml of the CLEU solution was administered intraperitoneally. For AKBA treatment (2 mg/body), 2 mg AKBA (Enzo Life Sciences)/20% DMSO/1 mL PBS solution was administered intraperitoneally. Vehicle without AKBA was used as a control. For measuring complete blood count of peripheral blood, peripheral blood was collected from facial veins and counted by use of an automated animal blood cell counter (microsemi LC-662). All of the experiments conducted in this study were approved by the Animal Experiment Committee of the Environmental Safety Committee of Tohoku University.

NC1(C(=O)O)CCCC1 [CLEU, cycloleucine]
abundance of SAM present in erythroblasts [1]: reduce the abundance of SAM | trimethylation of H3K9 [2]: decreased | reduction of DNA CpG methylation overall [3]: about 2% | hematocrit ([4]; Days 1-6, vs PBS): marked increase | platelet counts ([4]; Days 1-6, vs PBS): no particularly consistent differences | red blood cells ([4]; Days 1-6, vs PBS): marked increase | white blood cell counts ([4]; Days 1-6, vs PBS): no particularly consistent differences | hemoglobin levels ([4]; peripheral blood, vs PBS): marked increase
